From publication PMC9309159, “Identification of heptapeptides targeting a lethal bacterial strain in septic mice through an integrative approach” (Signal Transduction and Targeted Therapy, 2022) come the findings set out here.

The target of one assay is DEGP protein. Briefly: SPRi assay of peptide binding to DEGP protein. The following applies: control peptide immobilized on chip, value printed in picture of Fig. 8e. More on the design: species or system E. coli MSI001. On the procedure:
(§1) Protein profiles were determined by cPCoA distance among samples and characterized by close intragroup distances among samples. b Hierarchical clustering analysis of proteins from the HEE, VTK and input groups. […] Label-free mass spectrometry was used to quantitate proteins from the HEE, VTK and input groups. Red represents high expression, while blue represents low expression. c Volcano plot of proteins from the VTK group and HEE group. […] DEGP or DEGQ protein at different concentrations (5 nmol/L, 10 nmol/L, 20 nmol/L) in solution flowed on an SPRi chip. Binding data were collected and analyzed by commercial SPRi analysis software (Plexera SPR Data Analysis Model, Plexera, USA).
(§2) To measure the binding affinity of peptides with targeted proteins, a PlexArray HT A100 (Plexera, USA) Surface Plasmon Resonance imaging (SPRi) system was used to monitor the whole procedure in real time. Briefly, a chip with a well-prepared peptide microarray was assembled with a plastic flow cell for sample loading. The operation details for the PlexArray HT were as described previously.[65] The purified protein samples were prepared at determined concentrations in PBS running buffer, while glycine-HCl buffer (10 mmol/L, pH 2.0) was used for regeneration. Binding data were collected and analyzed by SPR Data Analysis Module software (Plexera, USA). […]

The next assay has as its target DEGQ protein. Briefly: SPRi assay of peptide binding to DEGQ protein. More on the design: species or system E. coli MSI001. The conditions noted are these: control peptide immobilized on chip, value printed in picture of Fig. 8e. On the procedure:
as §1, §2

The subject of another assay is bacterial strain MSI001. Briefly: In vitro antibacterial assay (colony counting). The following applies: 1 × 10^3 CFU, peptide 0.25, 0.5, 1 μmol/L, 37 °C, 1-8 h, colony count, n = 3. Type of assay: cell-based, Escherichia coli. On the procedure: Fig. 6 Antimicrobial activity of the C7C-LL37 fusion peptides in vitro. a Primary structures and physical properties of the C7C and LL37 fusion peptides, including LL37, VTK-LL37, LL37-VTK, KYY-LL37 and LL37-KYY, ISS-LL37, INS-LL37. Net charge, PI and GRAVY values were acquired as described above. b Inhibitory effect of C7C-LL37 fusion peptides on bacterial growth. A C7C-LL37 fusion peptide or LL37 alone was added to the cultured bacterial strain MSI001 (1 × 10^3 CFU) at final concentrations of 0.25 μmol/L, 0.5 μmol/L and 1 μmol/L. Sterile DPBS was used as control. After incubation with the C7C-LL37 or LL37 peptides at 37 °C for different times (1-8 h), bacterial colonies were counted. n = 3. *P < 0.05, VTK-LL37 group compared to LL37 group; ^#P < 0.05, LL37-VTK group compared to LL37 group. c, d Inhibitory effect of VTK-LL37 on biofilm formation. The VTK-LL37 or LL37 peptide was added to the bacterial culture at a final concentration of 0-4 μmol/L and incubated at 37 °C for 3 days. Bacterial culture medium and the peptides were refreshed every day. The biofilm was stained with 1% crystal violet, and the precipitates were dissolved in 95% ethanol, followed by detection of absorbance at 570 nm (A570) (c). Moreover, the biofilm was observed under a microscope (d). n = 5. *P < 0.05, VTK-LL37 group compared to LL37 group […]

Assay [1] addresses T1, DEGQ protein, purified (SPRi analyte) (E. coli (strain MSI001), UniProt P39099 28-455).
T1 sequence (looked up): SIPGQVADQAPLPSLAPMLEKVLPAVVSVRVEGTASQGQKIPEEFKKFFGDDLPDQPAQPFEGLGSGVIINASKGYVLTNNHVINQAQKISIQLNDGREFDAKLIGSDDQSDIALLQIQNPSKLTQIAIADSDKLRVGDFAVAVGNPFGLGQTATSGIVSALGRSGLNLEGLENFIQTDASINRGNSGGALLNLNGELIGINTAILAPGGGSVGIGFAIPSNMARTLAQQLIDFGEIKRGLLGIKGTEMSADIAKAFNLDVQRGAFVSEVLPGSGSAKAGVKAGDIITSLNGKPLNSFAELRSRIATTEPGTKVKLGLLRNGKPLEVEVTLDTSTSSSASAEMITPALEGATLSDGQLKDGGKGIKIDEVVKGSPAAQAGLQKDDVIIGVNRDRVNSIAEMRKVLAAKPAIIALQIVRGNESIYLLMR
Briefly: SPR. The conditions noted are these: both partners purified.

The target in assay [2] is T2, DEGP protein, purified (SPRi analyte) (E. coli (strain MSI001), UniProt P0C0V0 27-474).
T2 sequence (looked up): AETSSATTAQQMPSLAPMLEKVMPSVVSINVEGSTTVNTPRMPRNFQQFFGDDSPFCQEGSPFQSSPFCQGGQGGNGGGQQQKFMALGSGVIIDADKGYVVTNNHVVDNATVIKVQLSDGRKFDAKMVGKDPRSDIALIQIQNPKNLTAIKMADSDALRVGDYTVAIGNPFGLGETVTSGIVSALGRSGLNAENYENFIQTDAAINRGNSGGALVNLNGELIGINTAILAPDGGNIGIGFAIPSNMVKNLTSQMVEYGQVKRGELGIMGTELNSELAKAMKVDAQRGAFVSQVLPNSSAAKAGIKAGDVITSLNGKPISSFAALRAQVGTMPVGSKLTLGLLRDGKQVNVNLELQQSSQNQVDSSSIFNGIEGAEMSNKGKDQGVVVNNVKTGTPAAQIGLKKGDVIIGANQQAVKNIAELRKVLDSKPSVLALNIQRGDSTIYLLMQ
As to the kind of experiment: SPR. The conditions noted are these: both partners purified.

“Also recorded” adds a separate entry of the source. Ends that are not written are not given here. * marks the point of attachment. Biotin = O=C1N[C@H]2[C@H](CS[C@H]2CCCCC(=O)*)N1

“Biotin-CHEEWLPAC (cysteine pairing not given here) [control HEE heptapeptide]”: the Kd on DEGP protein stood at 5250 nM; on DEGQ protein, 1000 nM.

For “LLGDFFRKSKEKIGKEFKRIVQRIKDFLRNLVPRTESVPGVGCVTKLGSLC [LL37-VTK]”, the “inhibitory effect on bacterial growth of MSI001” value in the assay on bacterial strain MSI001 is on record as “inhibited MSI001 bacterial growth but also showed stronger antibiotic activity than LL37 alone in the early stage (1-3 h); also recorded: stronger bacteriostatic activity than other LL37 fusion peptides”.

B1: VTK heptapeptide VTKLGSL, synthesized (immobilised on the SPRi chip) (peptide)
peptide: VTKLGSL
notes: also called VTK peptide; source: synthetic peptide
In the case of B1, the Kd in assay [1] came out at 1.73 nM; in assay [2], 15.8 nM.
